Where “and” joins values, the source holds several entries; their conditions need not be identical. Equal entries are not always repeated.

This assay relates to 324938-238-R-J1-PDC complex spheroid growth, % test/control. Description: Anticancer human tumor 324938-238-R-J1-PDC patient-derived bladder carcinoma cell line growth inhibition [AhR]. The conditions noted are these: stronger effect = lower value. The gist of the method:
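Complex tumor spheroids co-cultured with HUVEC and human MSC stroma; AhR antagonists tested in combination with standard-of-care and investigational agents. Top concentration at or near clinical Cmax (else 10 microM), half-log dilutions; growth expressed as percent test/control.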
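Note: spheroids exposed to agents for seven days before viability read.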

Regarding `COc1cccc2c1C(=O)c1c(O)c3c(c(O)c1C2=O)CC(O)(C(=O)CO)CC3OC1CC(N)C(O)C(C)O1` (stereo unspecified), the viability, T/C by setting is: (compound 0.0316 µM) 69.2% and 39.5% and 37.4%; (compound 0.1 µM) 86% and 31.1% and 26.5%; (compound 0.316 µM) 53.9% and 16.3% and 19.6%; (compound 1 µM) 2.48% and 4.61% and 4.55%; (compound 3.16 µM) 1.18% and 0.26% and 0.23%; (compound 10 µM) 0.6% and 0.23% and 0.35%.

(Values after PubChem BioAssay AID1918995 (Molecular Pharmacology Branch, DTP, NCI, 2023).)
